Source: US9708251B2, “Unsaturated fatty alcohol alkoxylates from natural oil metathesis” (Stepan Company, priority 2012, dated 2017)

How the values were obtained:
[1] = Emulsion stability testing of nonionic emulsifiers, aromatic solvent series; type: physicochemical; design: key to 24 h separation, appearance / 1 h separation, appearance / 1 h separation, amount: C = creamy; CO = creamy oil; O = oil; GC = gritty cream; NS = no separation; OC = oily cream; key to Spon. (spontaneity): G = good; F = fair; P = poor
Protocol: (§1) Nonionic samples contain a low amount of water (<1%) and are prepared as emulsifiable concentrates with three pesticides using two different solvent systems. In the aromatic solvent series, the nonionic sample replaces Toximul® 8240 (castor oil ethoxylate, 36 POE, Stepan), and in the Hallcomid™ (N,N-dimethylcaprylamide/N,N-dimethylcapramide, Stepan) solvent series, the nonionic sample replaces Ninex® MT-630F.
Sample preparation: Ninate® 60E (calcium alkylbenzenesulfonate, Stepan) and the test sample are stirred until homogeneous. […] Controls 1-3 are made by using Toximul 8240 in the amounts indicated instead of the nonionic sample.
Formulations: • 1. Bifenthrin, 240 g/L (2.99 g), Aromatic 100 (ExxonMobil, 8.05 g), Ninate 60E (0.38 g), and nonionic sample or Toximul 8240 (0.58 g). • 2. 2,4-D ester, 480 g/L (8.90 g), Exxsol® D-110 (ExxonMobil, 2.50 g), Ninate 60E (0.36 g), and nonionic sample or Toximul 8240 (0.24 g). • 3. Tebuconazole, 360 g/L (4.45 g), N-methyl-2-pyrrolidone (6.35 g), Ninate 60E (0.48 g), nonionic sample or Toximul 8240 (0.72 g).
(§2) Emulsion Stability Testing
(§3) A Mohr pipette is used to feed pesticide/surfactant concentrates to each cylinder.

[2] = Surfactant phase behavior study (cross-polarized microscopy); type: physicochemical; settings: room temperature, in deionized water
Protocol: Phase behavior is observed using an Olympus BH-2 cross-polarized microscope at 100-400× and room temperature (20° C. to 22° C.). The inventive monounsaturated alcohol ethoxylates are compared with their saturated analogs.
Samples are prepared by diluting the most concentrated product gradually with deionized water. When the surfactant concentration approaches a phase transition, the concentration is varied at 2-4% intervals to estimate the phase boundary. The actives level reported in Table 4 for each phase boundary is within ±5% of the true boundary.
Samples are loaded between a microscope slide and cover glass and are allowed to equilibrate before observation. Microscopic texture is analyzed and used to determine the phase. For some samples, an AR 2000 rheometer (TA Instruments) is used to measure viscosity at 25° C. to further verify phase behavior.

[3] = Emulsion stability testing of nonionic emulsifiers, Hallcomid solvent series; type: physicochemical; design: key to 24 h separation, appearance / 1 h separation, appearance / 1 h separation, amount: C = creamy; CO = creamy oil; O = oil; GC = gritty cream; NS = no separation; OC = oily cream; key to Spon. (spontaneity): G = good; F = fair; P = poor
Protocol: as §1
(§4) Hallcomid Solvent Series.
(§5) Sample preparation: The surfactants are combined and stirred until homogeneous, with the nonionic sample melted if needed prior to combination. Controls 1-3 are made by using Ninex MT-630F in the amounts indicated instead of the nonionic sample.
as §2, §3

[4] = as above; type: physicochemical; design: key: C = creamy; CO = creamy oil; O = oil; GC = gritty cream; NS = no separation; OC = oily cream
Protocol: as §1, §4, §5, §2, §3

[5] = Agrichemical solvent analysis: active solubility; type: physicochemical; settings: room temperature
Protocol: Solvency strength of potential agrichemical solvents is evaluated by identifying the solubility level of three standard pesticides in the solvent by weight percent: 2,4-D acid, imidacloprid, and tebuconazole. […] The active material is also accurately weighed before addition. Initial amounts of active material are approximately: 2,4-D: 0.3 g; imidacloprid: 0.02 g; tebuconazole: 0.3 g. Solvent and pesticide active are combined, allowed to mix for 1 h at room temperature, and then inspected for the presence of undissolved active material. Additional active material is added in appropriately small increments until it no longer dissolves completely. This mixture is then stirred for 24 h at room temperature, and if the active has completely dissolved, additional active ingredient is added and the mixture is stirred another 24 h at room temperature. The percent solubility is recorded, and performance is compared with that of a standard agricultural solvent.

[6] = 0.4 wt. % active, 342 ppm hard water
Protocol: Surfactant solution (100 mL) is carefully transferred to a stainless-steel mixing cup, then mixed at high speed (27K rpm) using a Hamilton Beach mixer for 10 s. The contents are quickly poured into a 100-mL graduated cylinder to the 100-mL mark, and a stopwatch is immediately started. The amount of liquid settling in the cylinder is recorded every 15 s for 4 min. Less liquid drained indicates greater foam stability.

[7] = 2,4-D ester 480 g/L in Exxsol D-110, 34 ppm water
[8] = 2,4-D ester 480 g/L in Exxsol D-110, 1000 ppm water
[9] = Bifenthrin 240 g/L in Aromatic 100, 34 ppm water
[10] = Bifenthrin 240 g/L in Aromatic 100, 1000 ppm water
[11] = Tebuconazole 360 g/L in N-methyl-2-pyrrolidone, 34 ppm water
[12] = Tebuconazole 360 g/L in N-methyl-2-pyrrolidone, 1000 ppm water
[13] = 2,4-D diester 480 g/L in Hallcomid M-8-10, 34 ppm water
[14] = 2,4-D diester 480 g/L in Hallcomid M-8-10, 1000 ppm water
[15] = Bifenthrin 240 g/L in Hallcomid M-8-10, 34 ppm water
[16] = Bifenthrin 240 g/L in Hallcomid M-8-10, 1000 ppm water
[17] = Tebuconazole 360 g/L in Hallcomid M-8-10, 34 ppm water
[18] = Tebuconazole 360 g/L in Hallcomid M-8-10, 1000 ppm water

C=CCCCCCCCCOCCOCCOCCOCCOCCO [A10-10]
1 h separation, amount [1, 7]: 1.5 mL
1 h separation, appearance [1, 7]: CO
24 h separation, amount [1, 7]: 4.1 mL
24 h separation, appearance [1, 7]: C
Spon. (spontaneity) [1, 7]: F
1 h separation, amount [1, 8]: 4 mL
1 h separation, appearance [1, 8]: CO
24 h separation, amount [1, 8]: 1 O, 4 CO
Spon. (spontaneity) [1, 8]: P
1 h separation, amount [1, 9]: NS
24 h separation, amount [1, 9]: 3.5 mL
24 h separation, appearance [1, 9]: C
Spon. (spontaneity) [1, 9]: F
1 h separation, amount [1, 10]: 3 O, 5 CO
24 h separation, amount [1, 10]: 4.5 O, 1 CO
Spon. (spontaneity) [1, 10]: F
1 h separation, amount [1, 11]: 2 mL
1 h separation, appearance [1, 11]: CO
24 h separation, amount [1, 11]: 2.5 mL
24 h separation, appearance [1, 11]: CO
Spon. (spontaneity) [1, 11]: P
1 h separation, amount [1, 12]: 2.5 mL
1 h separation, appearance [1, 12]: CO
24 h separation, amount [1, 12]: 3 mL
24 h separation, appearance [1, 12]: CO
Spon. (spontaneity) [1, 12]: P
Isotropic Clear phase region [2]: 0-100 % Actives Level
1 h separation, amount [3, 13]: 5 mL
1 h separation, appearance [3, 13]: C
24 h separation, amount [3, 13]: 9.9 mL
24 h separation, appearance [3, 13]: C
Spon. (spontaneity) [3, 13]: F
1 h separation, amount [3, 14]: 6 mL
1 h separation, appearance [3, 14]: C
24 h separation, amount [3, 14]: 8 mL
24 h separation, appearance [3, 14]: C
Spon. (spontaneity) [3, 14]: F
1 h separation, amount [3, 15]: NS
Spon. (spontaneity) [3, 15]: G
1 h separation, amount [3, 16]: 6.5 mL
1 h separation, appearance [3, 16]: CO
24 h separation, amount [3, 16]: 4 O, 2 CO
Spon. (spontaneity) [3, 16]: F
1 h separation, amount [3, 17]: 2 mL
1 h separation, appearance [3, 17]: C
24 h separation, amount [3, 17]: 5 mL
24 h separation, appearance [3, 17]: C
Spon. (spontaneity) [3, 17]: F
1 h separation, amount [3, 18]: 3.5 mL
1 h separation, appearance [3, 18]: C
24 h separation, amount [3, 18]: 2 CO, 5 C
Spon. (spontaneity) [3, 18]: F
24 h separation, amount [4, 15]: NS
solubility of 2,4-D Acid in the solvent [5]: 29.8 weight percent
solubility of Imidacloprid in the solvent [5]: 2.8 weight percent
solubility of Tebuconazole in the solvent [5]: 13.0 weight percent

C=CCCCCCCCCOCCOCCOCCOCCOCCOCCOCCO [A10-13]
1 h separation, amount [1, 7]: 2.8 mL
1 h separation, appearance [1, 7]: C
24 h separation, amount [1, 7]: 4.6 mL
24 h separation, appearance [1, 7]: C
Spon. (spontaneity) [1, 7]: G
1 h separation, amount [1, 8]: 3.9 mL
1 h separation, appearance [1, 8]: CO
24 h separation, amount [1, 8]: 1 O, 4 CO
Spon. (spontaneity) [1, 8]: F
1 h separation, amount [1, 9]: 3 mL
1 h separation, appearance [1, 9]: C
24 h separation, amount [1, 9]: 5.8 mL
24 h separation, appearance [1, 9]: C
Spon. (spontaneity) [1, 9]: F
1 h separation, amount [1, 10]: NS
24 h separation, amount [1, 10]: 2.6 mL
24 h separation, appearance [1, 10]: O
Spon. (spontaneity) [1, 10]: G
1 h separation, amount [1, 11]: 1.5 CO, 0.5 C
24 h separation, amount [1, 11]: 2.8 mL
24 h separation, appearance [1, 11]: CO
Spon. (spontaneity) [1, 11]: P
1 h separation, amount [1, 12]: 2.1 mL
1 h separation, appearance [1, 12]: CO
24 h separation, amount [1, 12]: 3.5 mL
24 h separation, appearance [1, 12]: CO
Spon. (spontaneity) [1, 12]: P
Isotropic Clear phase region [2]: 0-100 % Actives Level
Liquid volume at drain time 0.5 min [6]: 0.50 mL
Liquid volume at drain time 1.0 min [6]: 2.25 mL
Liquid volume at drain time 1.5 min [6]: 4.00 mL
Liquid volume at drain time 2.0 min [6]: 6.00 mL
Liquid volume at drain time 2.5 min [6]: 7.50 mL
Liquid volume at drain time 3.0 min [6]: 9.50 mL
Liquid volume at drain time 3.5 min [6]: 11.50 mL
Liquid volume at drain time 4.0 min [6]: 13.25 mL
1 h separation, amount [3, 13]: 4.5 mL
1 h separation, appearance [3, 13]: C
24 h separation, amount [3, 13]: 8.2 mL
24 h separation, appearance [3, 13]: C
Spon. (spontaneity) [3, 13]: P
1 h separation, amount [3, 14]: 5 mL
1 h separation, appearance [3, 14]: C
24 h separation, amount [3, 14]: 7.8 mL
24 h separation, appearance [3, 14]: C
Spon. (spontaneity) [3, 14]: F
1 h separation, amount [3, 15]: NS
Spon. (spontaneity) [3, 15]: G
1 h separation, amount [3, 16]: 6.4 mL
1 h separation, appearance [3, 16]: CO
24 h separation, amount [3, 16]: 6 mL
24 h separation, appearance [3, 16]: O
Spon. (spontaneity) [3, 16]: F
1 h separation, amount [3, 17]: 2.1 mL
1 h separation, appearance [3, 17]: C
24 h separation, amount [3, 17]: 4.9 mL
24 h separation, appearance [3, 17]: C
Spon. (spontaneity) [3, 17]: F
1 h separation, amount [3, 18]: 3 mL
1 h separation, appearance [3, 18]: C
24 h separation, amount [3, 18]: 5.5 mL
24 h separation, appearance [3, 18]: C
Spon. (spontaneity) [3, 18]: F
24 h separation, amount [4, 15]: NS

C=CCCCCCCCCOCCOCCOCCOCCOCCOCCOCCOCCOCCOCCOCCOCCOCCOCCOCCO [A10-16]
1 h separation, amount [1, 7]: 2.6 mL
1 h separation, appearance [1, 7]: C
24 h separation, amount [1, 7]: 5 mL
24 h separation, appearance [1, 7]: C
Spon. (spontaneity) [1, 7]: P
1 h separation, amount [1, 8]: 2.8 mL
1 h separation, appearance [1, 8]: C
24 h separation, amount [1, 8]: 3.9 mL
24 h separation, appearance [1, 8]: C
Spon. (spontaneity) [1, 8]: P
1 h separation, amount [1, 9]: 7 mL
1 h separation, appearance [1, 9]: C
24 h separation, amount [1, 9]: 7 mL
24 h separation, appearance [1, 9]: C
Spon. (spontaneity) [1, 9]: P
1 h separation, amount [1, 10]: 6 mL
1 h separation, appearance [1, 10]: C
24 h separation, amount [1, 10]: 4.8 mL
24 h separation, appearance [1, 10]: CO
Spon. (spontaneity) [1, 10]: P
1 h separation, amount [1, 11]: 1 mL
1 h separation, appearance [1, 11]: C
24 h separation, amount [1, 11]: 3.5 mL
24 h separation, appearance [1, 11]: CO
Spon. (spontaneity) [1, 11]: P
1 h separation, amount [1, 12]: 1.2 mL
1 h separation, appearance [1, 12]: C
24 h separation, amount [1, 12]: 2 mL
24 h separation, appearance [1, 12]: CO
Spon. (spontaneity) [1, 12]: P
Paste phase region [2]: 93-100 % Actives Level
1 h separation, amount [3, 13]: 4.4 mL
1 h separation, appearance [3, 13]: C
24 h separation, amount [3, 13]: 8.5 mL
24 h separation, appearance [3, 13]: C
Spon. (spontaneity) [3, 13]: P
1 h separation, amount [3, 14]: 4.8 mL
1 h separation, appearance [3, 14]: C
24 h separation, amount [3, 14]: 7.6 mL
24 h separation, appearance [3, 14]: C
Spon. (spontaneity) [3, 14]: P
1 h separation, amount [3, 15]: NS
Spon. (spontaneity) [3, 15]: G
1 h separation, amount [3, 16]: 5.5 mL
1 h separation, appearance [3, 16]: CO
24 h separation, amount [3, 16]: 5.4 mL
24 h separation, appearance [3, 16]: O
Spon. (spontaneity) [3, 16]: F
1 h separation, amount [3, 17]: 1 mL
1 h separation, appearance [3, 17]: C
Spon. (spontaneity) [3, 17]: F
1 h separation, amount [3, 18]: 2 mL
1 h separation, appearance [3, 18]: C
24 h separation, amount [3, 18]: 4.7 mL
24 h separation, appearance [3, 18]: C
Spon. (spontaneity) [3, 18]: F
24 h separation, amount [4, 15]: NS
24 h separation, amount [4, 17]: NS
